Measured values taken from patent US10676507B2, “Peptide and composition containing the same for anti-inflammation, anti-fibrosis, wound healing, and anticancer treatment” (GemVax & KAEL CO., LTD., priority 2015, dated 2020).

Tests used:
[1] = system: wound-induced SD rats; assay: Wound area in full-thickness excision wound-induced animal model; assay type: in vivo, Sprague-Dawley (SD) rats; details: 50 μL of 100 μg/mL applied every two days
Experimental: To confirm wound healing effects of the novel peptides Pep-WH-8, Pep-WH-9, Pep-WH-11, and Pep-WH-1, a wound-induced animal model was treated with each of the novel peptides, and then an experiment to confirm an effect of each peptide in producing collagen needed for a decrease in wound size and in a wound healing process was carried out as follows.
Sprague-Dawley (SD) rats were selected because mice have thin skins and it is difficult to uniformly induce a wound in mice. To exclude effects due to hormonal changes, male SD rats were selected and 6-week-old SD rats were purchased and acclimated for about 1 week. However, to more precisely obtain experimental results, an experiment was carried out after the 6-week-old SD rats became 11 weeks old. Since experimental animals are sensitive to olfactory responses and may attack other individual, individuals were separated from each other after wounds were formed, such as 1 rat for each cage, and observed.
The following method was used to form full-thickness excision in the prepared experimental animals. To induce anesthesia, a mixture of 10 mg/kg (body weight) of xylazine-HCl and 100 mg/kg (body weight) of ketamine HCl were intraperitoneally injected into the experimental animals or the experimental animals were administered the mixture via a respiratory anesthesia system. After the induction of anesthesia, hairs on the back of the experimental animal in a prone position were shaved cleanly, the back was disinfected with betadine, and then one circular full-thickness excision was made on a site apart from the highest portion of the back to each of left and right sides by a distance of about 1 cm, using a 16 mm punch. Separate dressing was not performed on the wound sites.
The full-thickness excision-induced animal model was divided into the following groups and a drug was applied on each group immediately after the formation of the excision and every two days. For the application method, a material was adjusted to a concentration of 1 mg/mL, and then, immediately before the experiment, the material was diluted 10 times to a concentration of 100 μg/mL. 50 μL of the material was applied dropwise on each excision.
[…] When the wounds were completely healed, the wound healing date was recorded. Generally, on about day 9, individuals with the wound sizes decreased to 5% of the initial wounds began to appear. The wound sites were photographed with a ruler, and then the acquired images were analyzed using the Image J program (NIH, USA) to calculate wound areas, and the wound areas were compared with each other.

[2] = system: TNF-α; assay: ELISA of TNF-α amounts in LPS-induced THP-1 cells; assay type: cell-based, human; details: all the concentrations (1 μM, 5 μM, 10 μM); FIG. 2
Experimental: (§1) An experiment was carried out using THP-1 cells (American Type Culture Collection (ATCC), Manassas, Va., USA), which is a human acute monocytic leukemia cell line. THP-1 cells were suspended in RPMI 1640 medium to a concentration of 1×10^5 cells per well in a 96 well plate and incubated for 24 hours. At this time, the THP-1 cells were treated with phorbol 12-myristate 13-acetate (PMA) (Sigma) to differentiate into macrophages.
The ELISA test method was as follows. THP-1, which is a monocyte cell line distributed from ATCC, was sub-cultured and prepared in the P3 stage, and the cell line was distributed into wells of a well plate and treated with PMA to differentiate into macrophages. The differentiated cells were treated with LPS to induce an inflammatory reaction (to induce the production of TNF-alpha), and were treated with each of the novel peptides at each concentration (1 μM, 5 μM, and 10 μM), and the amounts of TNF-α were measured by ELISA. Relative values for a non-inflammation group and a complete inflammation group were calculated, and estrogen (E2) was set as a positive control and a non-treated cell line not treated with the novel peptides was set as a general control to perform comparative analysis. E2 is known as a steroid that inhibits the production of TNF-α in THP-1.
(§2) All data are expressed as mean±standard error of the mean (S.E.M.), and statistical processing was performed by an ANOVA test. A SigmaStat statistical program was used and statistical analysis was performed using a Kruskal-Wallis test and a Mann-Whitney U-test. In addition, comparison between the groups was performed using a Tukey test and a p value less than 0.05 was determined as statistically significant.

[3] = system: TGF-β; assay: Western blotting of TGF-β signaling inhibition (pSmad2/3, Smad2/3) in HepG2 cell line; assay type: cell-based, human; details: 10 μM peptide
Experimental: To identify an inhibitory effect of TGF-β, considered as the main cause of fibrosis, of the novel peptides Pep-WH-1 to Pep-WH-12, an experiment for confirming a TGF-β signaling inhibitory action in a HepG2 cell line was carried out as follows.
Reagents and materials used in the present experiment are as follows. Powder-type novel peptides were dissolved in 0.2 μm filtered sterile water, and then stored in the form of aliquots at −70° C., and, when in use, the stored peptides were thawed. A HepG2 cell line (ATCC HB-8065; American Type Culture Collection) was used, and recombinant human TGF-β was dissolved in 4 mM HCl to prepare a 10 μg/mL stock. SB431542 (Sigma) as a positive control was used after being prepared into 10 mM stock.
2×10^6 HepG2 cells (ATCC HB-8065) were seeded in a 60 mm petri dish, and then cultured in a CO2 incubator for 16 hours. Subsequently, the medium was replaced by a serum-free medium (SFM) and further cultured for 24 hours. Thereafter, the medium was replaced with 10 ng/mL of TGF-β1, and the HepG2 cells were treated with each of the novel peptides at each concentration (1 μM and 10 μM) and then cultured for 72 hours. Groups treated with the respective novel peptides were further cultured in a CO2 incubator at 37° C. for 1 hour.
To measure anti-fibrotic activities of the novel peptides, an experiment for measuring a degree of TGF-β signaling inhibition was carried out by western blotting, and a detailed description of the experimental method is as follows.
Cells treated with each peptide were washed twice with PBS, collected in a 1.5 mL EP tube using a cell scraper, and then centrifuged using a centrifugal separator (1,000 rpm, 4° C., 2 minutes) to remove the supernatant, and then 100 μL each was added to RIPA-treated HepG2 cells. The HepG2 cells were incubated on ice for 40 minutes, and then mixed by shaking every 10 minutes (vertex, micro-centrifuge pre-cooled to 4° C.), and each sample was mixed 40 times to 50 times using a 1 mL syringe. Lastly, the resulting mixture was centrifuged at 13,000 rpm for 15 minutes and the obtained supernatant was used.
30 μg of protein was subjected to 8% sodium dodecyl sulfate-polyacrylamide gel electrophoresis (SDS-PAGE) to be transferred to polyvinylidene difluoride (PVDF) membranes (Millipore). The PVDF membranes were blocked with 5% skim milk and incubated with particular primary antibodies. The antibodies used in this experiment are as follows: Smad 2/3 (60, 52 kDa, 5% BSA 1:1000, #3102, Cell signaling), pSmad2/3 (cell signaling #3102), and GAPDH (37 kDa, 5% BSA 1:1000, #2118, Cell signaling). Subsequently, the PVDF membranes were washed with tris-buffered saline containing 0.1% Tween-20 (TBST), and then reacted with an HRP-conjugated anti-rabbit antibody (manufactured by Jackson ImmunoResearch Laboratories, Inc.). Afterwards, ECL detection (Amersham Pharmacia Biotech) was performed thereon, and the acquired images were analyzed using an image analyzer (GE Healthcare, ImageQuant LAS 4000).
To measure TGF-β inhibitory effects, pSmad2/3 and Smad2/3 were used as TGF-β signaling activity markers, and GAPDH was used as a reference group in electrophoresis. The TGF-β signaling activity markers which were expressed at a high concentration as TGF-β was inhibited were used.
as §2, with “as mean±S.E.M.,” for “as mean±standard error of the mean (S.E.M.),”, “test. The” for “test. A”

[4] = system: TNF-α; assay: RT-qPCR of TNF-α mRNA expression in LPS-treated THP-1 cells; assay type: cell-based, human; details: 1 μM, the lowest treatment concentration; FIG. 1
Experimental: as §1
The RT-qPCR test method was as follows. THP-1 cells were plated on a 6-well plate at a concentration of 2×10^6 cells/well and treated with 100 ng/mL of PMA for 24 hours to differentiate into macrophages. The media were removed and the differentiated THP-1 cells were washed twice with serum-free media (SFM), and then each novel peptide was treated with 10 ng/mL of LPS at each concentration of 1 μM, 5 μM, and 10 μM for 6 hours. RNA was extracted using RNeasy® Plus Mini Kit (Qiagen), and the extracted RNA was quantified and then cDNA synthesis was performed using a Reverse Transcription System (Promega). […]
All data are expressed as mean±standard error of the mean (S.E.M.), and statistical processing was performed by an ANOVA test. […] In addition, comparison between the groups was performed using a Tukey test and a p value less than 0.05 was determined as statistically significant.

[5] = day 3 after full-thickness excision
[6] = day 1 after full-thickness excision

Substance | inflammation-inducing activity (TNF-α amount) compared to E2 positive control [2] | TGF-β inhibitory activity compared to positive control 10 μM SB431542 [3] | further results
ALTSKLRF (Pep-WH-12 peptide) | lower inflammation-inducing activity | higher TGF-β inhibitory activity | wound size compared to control [1, 5]: smaller wound size
ALTSRVRF (Pep-WH-9 peptide) | lower inflammation-inducing activity |  | wound size compared to control [1, 6]: smaller wound size
Pep-WH-11: novel peptide prepared by the same method as Pep-WH-1; sequence not printed in Table 2 (ALSTRLRG; Pep-WH-11 peptide) | lower inflammation-inducing activity |  | wound size compared to control [1, 6]: smaller wound size; anti-inflammatory activity (TNF-α mRNA inhibition), comparison among peptides [4]: highest anti-inflammatory activity
ALTSRVRG (Pep-WH-8 peptide) | lower inflammation-inducing activity |  | wound size compared to control [1, 5]: smaller wound size
ALSTRLRF (Pep-WH-6 peptide) |  | higher TGF-β inhibitory activity | 
ALSSRLRF (Pep-WH-3 peptide) |  | higher TGF-β inhibitory activity | 
ALSTRLRA (Pep-WH-4 peptide) |  | higher TGF-β inhibitory activity | 
ALTSRVRA (Pep-WH-7 peptide) |  | higher TGF-β inhibitory activity | 
ALSTRLRG (Pep-WH-5 peptide) |  | higher TGF-β inhibitory activity | 
